Experiments:
Format in all cases: cell-based, human
p38 MAPK = assay: LPS-induced phosphorylation of p38 MAPK in PBMac, Western blot; conditions: B22EES1-8-3 140 μM for 24 h, then 10 ng/mL LPS for 15 min
Description: (§1) FIGS. 6A-6C show the effects of B22EES1-8-3 on LPS-induced phosphorylation (phospho-) of ERK1/2 and p38 MAP kinases, and nuclear translocation of NF-κB p65. PBMac were incubated with B22EES1-8-3 (140 μM) for 24 h prior to the addition of 10 ng/mL LPS for an additional 15 min. Cytoplasmic (A, B) and nuclear (C) proteins were harvested for Western Blotting: (A) Cytoplasmic proteins: phospho-ERK1/2 and total ERK1/2. (B) Cytoplasmic proteins: phospho-p38 and total p38 kinase. (C) Nuclear proteins: upper panel, NF-κB p65 and lamin B; lower panel, the intensity of corresponding lanes in the gel photograph of NF-κB p65 was shown. The results shown are representative of at least three independent experiments, with cells obtained from different donors. * P<0.05, compared with the corresponding control. […]
(§2) Whole cell lysate (20 μg) or nuclear protein (2 μg) were separated by sodium dodecyl sulfate polyacrylamide gel electrophoresis (SDS-PAGE) and transferred to nitrocellulose membranes for probing overnight with the respective antibodies specific for the phosphorylated or total form of ERK1/2 and p38 MAPK (Cell Signaling Technology, Beverly, Mass.), NF-κB p65 protein and lamin B (Santa Cruz Biotechnology, Santa Cruz, Calif.). […] In order to quantify the results from the Western blots, the gels were scanned and the intensity of the bands was analyzed by a computer program Quantity One from BioRad. […]

TNF-α = assay: LPS-induced TNF-α production in primary blood macrophages, ELISA of culture supernatants; conditions: for inhibition of LPS-induced TNF-α protein production: 140 μM B22EES1-8-3 for 24 hr, mean±S.D. of 6 experiments
Description: FIGS. 5A-5B show inhibition of LPS-induced TNF-α production by B22EES1-8-3 and dexamethasone. PBMac were incubated with (A) 140 μM B22EES1-8-3 or (B) 1.3 or 5.1 μM dexamethasone (Dex) for 24 hr prior to the addition of 1 ng/mL and 10 ng/mL LPS for another 24 hr. The culture supernatants were collected and assayed for TNF-α by ELISA. The results shown were the mean values±standard derivation (S.D.) of 6 independent experiments, with cells obtained from different donors. * P<0.05, compared with the corresponding control.
Human peripheral blood monocytic cells (PBMC) were isolated from the buffy coat of healthy donor blood supplied by Hong Kong Red Cross by Ficoll-Paque (Amersham Pharmacia Biotech, Piscataway, N.J.) density gradient centrifugation as described in our previous reports^14,15,34. In brief, the buffy coat was spun at 3000 rotations per min (rpm) for 15 min to separate the blood cells and the plasma. The heat inactivated serum was filtered for future use.
The adherent monocytic cells were detached and seeded onto tissue culture plates and incubated for another 7-14 days in order to differentiate the primary blood monocytic cells to primary blood macrophages (PBMac).
Culture supernatants of the LPS-treated PBMac, with or without B22EES1-8-3 pretreatment, were collected at different time intervals and stored at −70° C. The levels of the secreted TNF-α were measured by ELISA kits specific for the cytokine (R&D system, Minneapolis, Minn.).
To confirm the activities of B8-3 in suppressing TNF-α production, B8-3 was incubated with PBMac for 24 hr prior the addition of LPS at concentrations of 1 ng/mL and 10 ng/mL for 24 hr. The culture supernatants were collected and measured by ELISA for the level of secreted TNF-α.
To further compare the efficiency of B8-3 with existing drugs, dexamethasone, a potent immunosuppressive corticosteroid, was used as a prototype. PBMac were treated with dexamethasone for 24 hr prior to the addition of LPS at concentrations of 1 ng/mL and 10 ng/mL for 24 hr.

NF-κB p65 = assay: LPS-induced nuclear translocation of NF-κB p65 in PBMac, Western blot of nuclear proteins; conditions: B22EES1-8-3 140 μM for 24 h, then 10 ng/mL LPS for 15 min, nuclear fraction
Description: as §1, §2

ERK1/2 = assay: LPS-induced phosphorylation of ERK1/2 in PBMac, Western blot; conditions: B22EES1-8-3 140 μM for 24 h, then 10 ng/mL LPS for 15 min
Description: as §1, §2

| SMILES | effect on LPS-induced phosphorylation of p38 MAPK (p38 MAPK) | inhibition of LPS-induced TNF-α protein production (TNF-α; PBMac, then LPS 1 ng/mL for 24 hr) | inhibition of LPS-induced TNF-α protein production (TNF-α; PBMac, then LPS 10 ng/mL for 24 hr) | amelioration of LPS-upregulated TNF-α production (TNF-α; summary statement, FIG. 5A, LPS concentration not stated) | effect on nuclear translocation of NF-κB p65 (NF-κB p65) | effect on LPS-induced phosphorylation of ERK1/2 (ERK1/2) | inhibition at 1.3 µM (TNF-α; Homo sapiens, Macrophage, PBMac, dexamethasone 1.3 μM for 24 hr, then LPS (1 and 10 ng/mL used) for 24 hr) | inhibition at 5.1 µM (TNF-α; Homo sapiens, Macrophage, PBMac, dexamethasone 5.1 μM for 24 hr, then LPS (1 and 10 ng/mL used) for 24 hr) |
| --- | --- | --- | --- | --- | --- | --- | --- | --- |
| COc1ccc(/C=C/C(=O)OCC(=O)Cc2ccc(O)c(O)c2)cc1O [B8-3] | not p38 MAPK induced by LPS was suppressed | 47±19% | 58±30% | over 50% | reduced the amount of p65NF-kB in the nuclear fraction | suppressed |  |  |
| C[C@@H]1C[C@H]2[C@@H]3CCC4=CC(=O)C=C[C@]4(C)[C@@]3(F)[C@@H](O)C[C@]2(C)[C@@]1(O)C(=O)CO [dexamethasone, reference compound] |  |  |  |  |  |  | 32 ± 7.5% | 25 ± 6.3% |
